From PubChem BioAssay AID2060486 (Molecular Pharmacology Branch, DTP, NCI, 2025)

Test system: IGROV1 complex spheroids (HUVEC, MSC), viability % test/control
Assay: Anticancer human tumor IGROV1 cell line growth inhibition [GQUAD];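 note: spheroids exposed to compounds for 7 days before readout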;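 for viability, T/C: 100% = DMSO vehicle control viability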
Conditions: for IC50: curve of first compound; for viability, T/C: stronger effect = lower value
In short: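 Tumor cells were grown as complex spheroids with HUVEC endothelial cells and mesenchymal stem cells as stroma. G-quadruplex stabilizers were combined with targeted agents over half-log dilutions from near the clinical Cmax, or from 10 microM.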

[1] = second compound 0.0316 µM, first compound 0.0316 µM
[2] = second compound 0.0316 µM, first compound 0.1 µM
[3] = second compound 0.0316 µM, first compound 0.316 µM
[4] = second compound 0.0316 µM, first compound 1 µM
[5] = second compound 0.0316 µM, first compound 3.16 µM
[6] = second compound 0.0316 µM, first compound 10 µM
[7] = second compound 0.1 µM, first compound 0.0316 µM
[8] = second compound 0.1 µM, first compound 0.1 µM
[9] = second compound 0.1 µM, first compound 0.316 µM
[10] = second compound 0.1 µM, first compound 1 µM
[11] = second compound 0.1 µM, first compound 3.16 µM
[12] = second compound 0.1 µM, first compound 10 µM
[13] = second compound 0.316 µM, first compound 0.0316 µM
[14] = second compound 0.316 µM, first compound 0.1 µM
[15] = second compound 0.316 µM, first compound 0.316 µM
[16] = second compound 0.316 µM, first compound 1 µM
[17] = second compound 0.316 µM, first compound 3.16 µM
[18] = second compound 0.316 µM, first compound 10 µM
[19] = second compound 1 µM, first compound 0.0316 µM
[20] = second compound 1 µM, first compound 0.1 µM
[21] = second compound 1 µM, first compound 0.316 µM
[22] = second compound 1 µM, first compound 1 µM
[23] = second compound 1 µM, first compound 3.16 µM
[24] = second compound 1 µM, first compound 10 µM
[25] = second compound 3.16 µM, first compound 0.0316 µM
[26] = second compound 3.16 µM, first compound 0.1 µM
[27] = second compound 3.16 µM, first compound 0.316 µM
[28] = second compound 3.16 µM, first compound 1 µM
[29] = second compound 3.16 µM, first compound 3.16 µM
[30] = second compound 3.16 µM, first compound 10 µM
[31] = second compound 10 µM, first compound 0.0316 µM
[32] = second compound 10 µM, first compound 0.1 µM
[33] = second compound 10 µM, first compound 0.316 µM
[34] = second compound 10 µM, first compound 1 µM
[35] = second compound 10 µM, first compound 3.16 µM
[36] = second compound 10 µM, first compound 10 µM

COc1ncnc(C2CC2)c1-c1ncc2cnn(Cc3ccc(-c4nc(C(F)(F)F)cn4C(C)C)cc3)c2n1 + Cc1cnc(CNC(=O)c2c(=O)c3ccc(N4CCCN(C)CC4)nc3n3c2sc2ccccc23)cn1
IC50 (second compound 0.0316 µM): 2110 nM
IC50 (second compound 0.1 µM): < 31.6 nM
IC50 (second compound 0.316 µM): < 31.6 nM
IC50 (second compound 1 µM): < 31.6 nM
IC50 (second compound 3.16 µM): < 31.6 nM
IC50 (second compound 10 µM): < 31.6 nM
viability, T/C [1]: 53.6%
viability, T/C [2]: 55.4%
viability, T/C [3]: 53%
viability, T/C [4]: 57.7%
viability, T/C [5]: 42.7%
viability, T/C [6]: 46.5%
viability, T/C [7]: 37.1%
viability, T/C [8]: 39.4%
viability, T/C [9]: 33%
viability, T/C [10]: 28.5%
viability, T/C [11]: 35.5%
viability, T/C [12]: 34.1%
viability, T/C [13]: 20.6%
viability, T/C [14]: 25.6%
viability, T/C [15]: 26.9%
viability, T/C [16]: 21.4%
viability, T/C [17]: 21.7%
viability, T/C [18]: 20.8%
viability, T/C [19]: 15.2%
viability, T/C [20]: 13.8%
viability, T/C [21]: 11.1%
viability, T/C [22]: 14.3%
viability, T/C [23]: 15.8%
viability, T/C [24]: 12.4%
viability, T/C [25]: 10.6%
viability, T/C [26]: 8.57%
viability, T/C [27]: 9.08%
viability, T/C [28]: 9.63%
viability, T/C [29]: 9.64%
viability, T/C [30]: 8.03%
viability, T/C [31]: 9.86%
viability, T/C [32]: 9.33%
viability, T/C [33]: 8.36%
viability, T/C [34]: 8.88%
viability, T/C [35]: 10.2%
viability, T/C [36]: 7.78%

Cc1[nH]c2ccccc2c1CCNCc1ccc(/C=C/C(=O)NO)cc1 + Cc1cnc(CNC(=O)c2c(=O)c3ccc(N4CCCN(C)CC4)nc3n3c2sc2ccccc23)cn1
IC50 (second compound 0.0316 µM): 6.26 nM
IC50 (second compound 0.1 µM): < 0.999 nM
IC50 (second compound 0.316 µM): < 0.999 nM
IC50 (second compound 1 µM): < 0.999 nM
IC50 (second compound 3.16 µM): < 0.999 nM
IC50 (second compound 10 µM): < 0.999 nM
viability, T/C (second compound 0.0316 µM, first compound 0.000999 µM): 65.9%
viability, T/C (second compound 0.0316 µM, first compound 0.00316 µM): 65.3%
viability, T/C (second compound 0.0316 µM, first compound 0.00999 µM): 38.7%
viability, T/C [1]: 21.5%
viability, T/C (second compound 0.0316 µM, first compound 0.0999 µM): 2.35%
viability, T/C [3]: 0.32%
viability, T/C (second compound 0.1 µM, first compound 0.000999 µM): 41.6%
viability, T/C (second compound 0.1 µM, first compound 0.00316 µM): 36.1%
viability, T/C (second compound 0.1 µM, first compound 0.00999 µM): 23.9%
viability, T/C [7]: 19.6%
viability, T/C (second compound 0.1 µM, first compound 0.0999 µM): 2.91%
viability, T/C [9]: 0.3%
viability, T/C (second compound 0.316 µM, first compound 0.000999 µM): 22.5%
viability, T/C (second compound 0.316 µM, first compound 0.00316 µM): 25.8%
viability, T/C (second compound 0.316 µM, first compound 0.00999 µM): 15.5%
viability, T/C [13]: 15%
viability, T/C (second compound 0.316 µM, first compound 0.0999 µM): 3.3%
viability, T/C [15]: 0.05%
viability, T/C (second compound 1 µM, first compound 0.000999 µM): 15.4%
viability, T/C (second compound 1 µM, first compound 0.00316 µM): 16.3%
viability, T/C (second compound 1 µM, first compound 0.00999 µM): 9.69%
viability, T/C [19]: 6.52%
viability, T/C (second compound 1 µM, first compound 0.0999 µM): 1.86%
viability, T/C [21]: 0.04%
viability, T/C (second compound 3.16 µM, first compound 0.000999 µM): 8.66%
viability, T/C (second compound 3.16 µM, first compound 0.00316 µM): 10.2%
viability, T/C (second compound 3.16 µM, first compound 0.00999 µM): 9.38%
viability, T/C [25]: 6%
viability, T/C (second compound 3.16 µM, first compound 0.0999 µM): 0.07%
viability, T/C [27]: 0.07%
viability, T/C (second compound 10 µM, first compound 0.000999 µM): 6.85%
viability, T/C (second compound 10 µM, first compound 0.00316 µM): 7.04%
viability, T/C (second compound 10 µM, first compound 0.00999 µM): 5.72%
viability, T/C [31]: 4.82%
viability, T/C (second compound 10 µM, first compound 0.0999 µM): 0.14%
viability, T/C [33]: 0.13%

O=C(NO)c1cnc(N2CCN(S(=O)(=O)c3ccc4ccccc4c3)CC2)nc1 + Cc1cnc(CNC(=O)c2c(=O)c3ccc(N4CCCN(C)CC4)nc3n3c2sc2ccccc23)cn1
IC50 (second compound 0.0316 µM): < 31.6 nM
IC50 (second compound 0.1 µM): < 31.6 nM
IC50 (second compound 0.316 µM): < 31.6 nM
IC50 (second compound 1 µM): < 31.6 nM
IC50 (second compound 3.16 µM): < 31.6 nM
IC50 (second compound 10 µM): < 31.6 nM
viability, T/C [1]: 49.6%
viability, T/C [2]: 21.8%
viability, T/C [3]: 4.13%
viability, T/C [4]: 0.2%
viability, T/C [5]: 0.06%
viability, T/C [6]: 0.06%
viability, T/C [7]: 16.4%
viability, T/C [8]: 10.6%
viability, T/C [9]: 2.94%
viability, T/C [10]: 0.19%
viability, T/C [11]: 0.06%
viability, T/C [12]: 0.05%
viability, T/C [13]: 11%
viability, T/C [14]: 9.94%
viability, T/C [15]: 2.34%
viability, T/C [16]: 0.05%
viability, T/C [17]: 0.03%
viability, T/C [18]: 0.05%
viability, T/C [19]: 8.18%
viability, T/C [20]: 8.18%
viability, T/C [21]: 1.32%
viability, T/C [22]: 0.04%
viability, T/C [23]: 0.03%
viability, T/C [24]: 0.05%
viability, T/C [25]: 5.96%
viability, T/C [26]: 4.03%
viability, T/C [27]: 0.06%
viability, T/C [28]: 0.04%
viability, T/C [29]: 0.05%
viability, T/C [30]: 0.06%
viability, T/C [31]: 6.31%
viability, T/C [32]: 6.49%
viability, T/C [33]: 0.09%
viability, T/C [34]: 0.07%
viability, T/C [35]: 0.1%
viability, T/C [36]: 0.1%
